“Also recorded” adds a separate entry of the source. Where two headings read alike, the source gives them in different places.
Key:
[1] = tested on: acute migraine episodes; format: in vivo, human
Description: (§1) The purpose of the experiments described in this Example was to determine the efficacy of dorsonasal administration of ropivacaine for inhibition of acute migraine episodes. Ropivacaine was dorsonasally administered to individual patients experiencing head pain, other symptoms, or both, believed to be associated with an acute migraine episode. Patients assessed head pain prior to and after ropivacaine administration.
Ropivacaine-HCl (NAROPINT™, Astra USA, Westborough, Mass.) was used as the commercially-available 0.75% (w/v) solution, and was obtained in 30 milliliter, sterile injectable vials.
Three methods were used to achieve dorsonasal delivery of ropivacaine to individual patients. Ropivacaine was administered to a first group of patients by an intranasal drip method. Ropivacaine was administered to a second group using cotton swabs, the absorbent portions of which were saturated with the ropivacaine solution. Ropivacaine was administered to patients in a third group by spraying the ropivacaine solution into each nostril, using either a squeeze-type spray bottle or a metered-dose spray bottle.
The intranasal drip method used to administer ropivacaine to the first group of patients was a based on the method described by Barre (1982, Headache 22:69-73), except that the ropivacaine solution was used in place of the solution used by Bane. Approximately 0.75 milliliter to approximately 1.0 milliliter of the ropivacaine solution was administered by way of each of the nostrils of each patient.
The cotton swab method used to administer ropivacaine to the second group of patients comprised gently inserting cotton swabs, sequentially and bilaterally, into the nostrils of patients and urging the swabs dorsally until their absorbent portions contacted portions of nasal epithelium located dorsal to the middle conchae. Each swab was left in place for approximately one minute, and was then withdrawn. Approximately 0.5 milliliter of the ropivacaine solution was delivered to each nostril using this method.
Patients in a third group were administered ropivacaine by spraying less than about 0.5 milliliter of the ropivacaine solution into each of the patient's nostrils using either a sterile squeeze bottle or a sterile metered-dose spray bottle of known design. The design and operation of each of these spray bottles are well known in the art.
Prior to administration of ropivacaine, each patient was placed in a supine position with the patient's head hyperextended approximately 45 degrees and rotated approximately 30 degrees to the right side. In this position, an imaginary line extending from the region of the nasal epithelium overlying the SPG of the patient through the patient's left nostril was approximately vertical. Ropivacaine was then administered to the left nostril of the patient as described for each of the three groups of patients. Ropivacaine was administered to each patient's right nostril after rotating the patient's head approximately 30 degrees to the left. Ropivacaine was administered to both nostrils of each patient to prevent cases of unilateral migraine from developing into contralateral migraine.
Prior to ropivacaine administration, each patient rated perceived headache pain according to a standard pain scale of the type used in the art. Patients were asked to rank the severity of pain which they were experiencing on a scale from 0 (no pain) to 10 (worst pain imaginable). This ten-point pain rating scale is analogous to, but has more gradations than, the four-point rating system used by the International Headache Society (IHS; Headache Classification Committee of the International Headache Society, 1988, Cephalalgia 8(Suppl. 7):19-28). Ropivacaine was administered to one nostril of each patient, and then to the other. The time required to administer ropivacaine to both nostrils of each patient was approximately three minutes. […]

[2] = tested on: migraine; settings: lidocaine, Intranasal Spray; 10-point pain scale
[3] = tested on: headache; settings: 10% (w/v) lidocaine solution sprayed through dorsonasal cannula; three patients
Method: The solution was administered by spraying it through a plastic cannula which had been bent to conform its shape such that the outlet of the cannula was located dorsonasally. The cannula was inserted into each nostril, and the solution was sprayed through the cannula, exiting therefrom through the outlet.

[4] = tested on: nerve structure; settings: intranasally administered; cited from earlier work
[5] = tested on: migraine; settings: intranasal spray of 1-2 milliliters 4% (w/v) lidocaine; within fifteen minutes; cited from earlier work
[6] = in vivo; cited from earlier work
[7] = tested on: tinnitus; assay: Inhibition of tinnitus by dorsonasal administration of ropivacaine (Example 4); format: in vivo, human; settings: patient 4-2
Description: Ropivacaine was dorsonasally administered to each of three patients using the nasal spray method or the nasal drops method described herein.

[8] = tested on: acute migraine episodes; assay: Dorsonasal administration of bupivacaine for inhibition of acute migraine episodes (Example 2); format: in vivo, human
Description: as §1, with “bupivacaine” for “ropivacaine”, “Bupivacaine” for “Ropivacaine”
The materials and methods used in the procedures performed in this Example were substantially the same as the materials and methods described in Example 1, with the exception that the composition which was administered to the patients described in this example comprised a 0.75% (w/v) solution of bupivacaine.
The organization of and the abbreviations used in Table 6 are analogous to those used in Table 1, with the exception that “B” in the treatment column refers to bupivacaine.

[9] = tested on: muscular headache; assay: Dorsonasal administration of bupivacaine for muscular headache episodes (Example 5); format: in vivo, human; settings: for Pain intensity after administration: 0.75% bupivacaine
Description: The purpose of the experiments described in this Example was to determine the efficacy of dorsonasal administration of bupivacaine for inhibition of muscular headaches. Bupivacaine was dorsonasally administered to four individual patients experiencing head pain and other symptoms associated with a severe muscular headache episode. All of the patients had areas of sustained craniocervical muscle contraction and tenderness which was absent in all patients following headache resolution. Patients assessed head pain prior to and after bupivacaine administration. The four patients and their responses were as follows.

[10] = tested on: headache; assay: Dorsonasal headache treatment using bupivacaine (Example 8); format: in vivo, human; settings: two patients
Method: Two different headache patients were treated by delivering about 0.25-0.75 milliliters of a 0.75% (w/v) bupivacaine solution to each nostril of the patients. The solution was administered by passing the solution along a plastic cannula having an absorbent portion affixed at the distal (i.e., outlet) portion thereof. This cannula had also been bent to conform its shape such that the outlet of the cannula and the affixed absorbent portion were located dorsonasally. The solution was passed along the cannula, and the cannula was left in place for several minutes.

[11] = n-heptane/buffer biphasic system; cited from earlier work
[12] = cited from earlier work
[13] = lidocaine 2.0% (w/v), 1 cc Drops, individual patients, pain scale 0-10
[14] = bupivacaine 0.75% (w/v), 2 Sprays, individual patients, pain scale 0-10
[15] = bupivacaine 0.75% (w/v), 2 cc Drops, individual patient, pain scale 0-10

Structure (SMILES): CCN(CC)CC(=O)Nc1c(C)cccc1C [Lidocaine, lidocaine]
- Oropharyngeal numbness ([1]; human, in vivo, 15 min): 6
- Pain 5 min post-treatment [1, 13]: Pain 5 min post-treatment: 2
- Pain 30 min post-treatment [1, 13]: Pain 30 min post-treatment: 6
- Pain 45 min post-treatment [1, 13]: Pain 45 min post-treatment: 6^B
- Rate of Pain Relief (migraine pain reduction per minute per gram of drug) [2]: 10.0
- Relief from headache symptoms [3]: All three patients experienced rapid relief
- Duration of action [4]: shorter than about one hour
- Patients with decreased head pain / effectiveness to reduce migraine pain [5]: 55%

Structure (SMILES): CCCN1CCCC[C@@H]1C(=O)Nc1c(C)cccc1C (single isomer, unassigned) [R(dextro) enantiomer of ropivacaine]
- Cardiotoxicity [6]: Cardiotoxicity is a side effect

Structure (SMILES): Oc1ccc2c(c1)[C@@]13CCCC[C@@]1(O)[C@@H](C2)N(CC1CCC1)CC3 [butorphanol]
- Effect of intranasal butorphanol on chronic non-headache pain following intranasal ropivacaine [7]: faster onset and a far more powerful effect

Structure (SMILES): CCCCN1CCCCC1C(=O)Nc1c(C)cccc1C (stereo not shown) [Bupivacaine, bupivacaine]
- Pain 5 min post-treatment ([8]; bupivacaine 0.75% (w/v), 2 Sprays, individual patients (first or 2nd treatment), pain scale 0-10, listed as B): Pain 5 min post-2nd-treatment: 0
- Rebound / recurrence at follow-up ([8]; bupivacaine 0.75% (w/v), 2 Sprays, individual patients, listed as B): Recurrence 4 hours post-treatmt; also recorded: No rebound up to 24 hours
- Pain 3 min post-treatment [8, 14]: Pain 3 min post-treatment: 0
- Pain 10 min post-treatment [8, 14]: Pain 10 min post-treatment: 0
- Associated symptom after treatment ([8]; bupivacaine 0.75% (w/v), 2 cc Drops, P2#3): Head pressure persisted
- Pain 5 min post-treatment [8, 15]: Pain 5 min post-treatment: 1-2
- Pain 10 min post-treatment [8, 15]: Pain 10 min post-treatment: 0
- Rebound at follow-up ([8]; bupivacaine 0.75% (w/v), 2 cc Drops, individual patients): No rebound up to 24 hours
- Rebound at follow-up ([8]; bupivacaine 0.75% (w/v), Sat'd Cotton Swab, individual patient): No rebound up to 24 hours
- Pain 5 min post-treatment ([8]; bupivacaine 0.75% (w/v), Sat'd Cotton Swab, individual patient, pain scale 0-10): Pain 5 min post-treatment: 0
- Time to arrest of migraine ([8]; bupivacaine 0.75% (w/v), all seven patients): ≤ 10 min
- Rebound of migraine within twenty-four hours of treatment ([8]; bupivacaine 0.75% (w/v), seven patients): Six of the seven patients treated using bupivacaine experienced no rebound
- Efficacy for relief of headache pain associated with migraine ([8]; preliminary data): efficacy similar to that of ropivacaine
- Pain intensity after administration ([9]; Patient 1, from about 8, within about 15 minutes, tension headache): 0
- Pain intensity after administration ([9]; Patient 2, from about 7, within about 7 minutes, muscle contraction headache): 0
- Muscle knots after treatment ([9]; Patient 4, 5 minutes after treatment): muscle knots were no longer perceived
- Pain intensity after administration ([9]; Patients 3 (from about 5) and 4 (from about 7), within about 5 minutes, tension headache): about 1
- Relief from headache symptoms ([10]; 0.75% (w/v) bupivacaine solution via cannula with absorbent portion): Both of these patients experienced rapid relief
- Rebound of headache symptoms ([10]; 0.75% (w/v) bupivacaine solution, follow-up about one day): neither patient experienced rebound of headache symptoms within about one day
- Partition coefficient relative to lidocaine [11]: about 10 times
- Proportion bound to protein in vivo [12]: Approximately 95%

From patent US9381349B2, “Apparatus for treating cerebral neurovascular disorders including headaches by neural stimulation” (priority 1997, dated 2016)
